According to ChEMBL document CHEMBL1150531, “Acetylcholinesterase inhibition by fused dihydroquinazoline compounds” (Bioorg Med Chem Lett, 1996):

Legend:
Acetylcholinesterase [1] = biological target: T1, Acetylcholinesterase (Rattus norvegicus, UniProt P37136)
T1 sequence (P37136 whole entry): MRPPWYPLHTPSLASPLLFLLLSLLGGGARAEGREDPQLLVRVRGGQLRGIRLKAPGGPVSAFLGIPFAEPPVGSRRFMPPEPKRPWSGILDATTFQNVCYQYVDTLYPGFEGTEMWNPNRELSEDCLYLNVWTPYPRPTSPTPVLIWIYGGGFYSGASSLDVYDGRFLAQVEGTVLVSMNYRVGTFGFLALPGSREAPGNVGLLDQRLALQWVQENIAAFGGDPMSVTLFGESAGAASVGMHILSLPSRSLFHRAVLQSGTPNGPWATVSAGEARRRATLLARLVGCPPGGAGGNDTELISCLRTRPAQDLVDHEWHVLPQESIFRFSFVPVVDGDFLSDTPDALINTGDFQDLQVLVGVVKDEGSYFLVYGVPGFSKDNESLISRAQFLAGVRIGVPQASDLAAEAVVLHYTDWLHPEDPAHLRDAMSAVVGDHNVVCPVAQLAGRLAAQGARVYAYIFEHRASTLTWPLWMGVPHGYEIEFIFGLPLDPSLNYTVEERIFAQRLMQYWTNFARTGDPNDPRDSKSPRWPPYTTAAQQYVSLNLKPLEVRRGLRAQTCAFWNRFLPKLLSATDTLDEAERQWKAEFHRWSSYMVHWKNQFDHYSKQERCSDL
Description: Inhibitory activity against acetylcholinesterase in rat brain

Acetylcholinesterase [2] = biological target: Acetylcholinesterase (Homo sapiens, UniProt P22303)
Acetylcholinesterase (Homo sapiens, UniProt P22303), sequence (P22303 whole entry): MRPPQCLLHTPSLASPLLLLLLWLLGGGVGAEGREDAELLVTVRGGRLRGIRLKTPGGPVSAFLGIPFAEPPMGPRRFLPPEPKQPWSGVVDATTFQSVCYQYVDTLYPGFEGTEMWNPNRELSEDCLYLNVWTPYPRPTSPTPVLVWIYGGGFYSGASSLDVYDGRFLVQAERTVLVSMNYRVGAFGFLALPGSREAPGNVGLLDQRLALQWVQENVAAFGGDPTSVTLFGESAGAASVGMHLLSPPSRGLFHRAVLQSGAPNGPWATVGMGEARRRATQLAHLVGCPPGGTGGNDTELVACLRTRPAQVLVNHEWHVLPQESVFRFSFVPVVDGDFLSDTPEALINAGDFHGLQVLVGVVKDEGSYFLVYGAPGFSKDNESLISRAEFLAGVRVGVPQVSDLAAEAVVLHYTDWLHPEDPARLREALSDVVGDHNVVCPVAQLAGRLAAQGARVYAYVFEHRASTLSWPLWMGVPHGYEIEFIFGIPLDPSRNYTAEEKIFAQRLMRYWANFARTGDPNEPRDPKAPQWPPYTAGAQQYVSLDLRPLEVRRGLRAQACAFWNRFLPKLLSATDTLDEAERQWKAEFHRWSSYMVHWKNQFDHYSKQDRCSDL
Description: Inhibitory activity against acetylcholinesterase in human RBC

Row | Compound | IC50 (Acetylcholinesterase [1]) [µM] | IC50 (Acetylcholinesterase [2]) [µM]
1 | Clc1cccc2c1CN1CCCCCC1=N2 | 4.75 | 
2 | c1ccc2c(c1)CN1CCCCCCC1=N2 | 100 | 9.2
3 | c1ccc2c(c1)CN1CCCCC1=N2 | > 100 | 3.66
4 | O=c1c2ccc(Cl)cc2nc2n1CCCCC2 | > 100 | > 100
5 | c1ccc2c(c1)CN1CCCCCC1=N2 | 15 | 3.76
6 | Clc1ccc2c(c1)CN1CCCCCC1=N2 | 9.3 | 
7 | N=c1c2ccc(Cl)cc2nc2n1CCCCC2 | 35.9 | 
8 | c1ccc2c(c1)CN1CCCCCCCC1=N2 | > 100 | 13.5
9 | S=c1c2ccc(Cl)cc2nc2n1CCCCC2 | > 100 | > 100
10 | c1ccc2c(c1)CN1CCCC1=N2 | 18 | 3.72
11 | CCCCCCCNC(=O)Oc1ccc2c(c1)[C@]1(C)CCN(C)[C@@H]1N2C [EPTASTIGMINE] | 0.6 | 0.125
12 | C/C=C1\[C@H]2C=C(C)C[C@]1(N)c1ccc(=O)[nH]c1C2 [HUPERZINE A] | 0.094 | 
